This is an account of results in BindingDB's records for doi:10.1016/j.bmc.2006.12.019 (Berlex, 2007).

For the experiment, the target named is T1, Serine protease 1 (Bos taurus, UniProt P00760).
T1 sequence (P00760 whole entry): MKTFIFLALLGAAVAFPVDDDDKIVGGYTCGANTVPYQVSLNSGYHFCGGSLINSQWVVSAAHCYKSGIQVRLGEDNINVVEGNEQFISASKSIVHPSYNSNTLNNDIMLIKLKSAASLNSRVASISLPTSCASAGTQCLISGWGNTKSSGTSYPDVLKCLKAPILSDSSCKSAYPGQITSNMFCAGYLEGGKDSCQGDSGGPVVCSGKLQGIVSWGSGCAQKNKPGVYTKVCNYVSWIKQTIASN
In words: Enzyme Inhibition Assay. As to the method: The enzyme activities were determined kinetically as the initial rate of cleavage of a peptide p-nitroanilide. Km for enzyme and substrate was determined using four substrate dilutions. Enzyme was incubated with test compounds for 10 min; the reaction was then started by the addition of the substrate. […] IC50 values for inhibitors were determined from the dose response curve by fitting the data to the Hill equation. Ki,app values were calculated as the IC50/2, with the IC50 value determined at a substrate concentration equal to Km

Molecules are shown by their SMILES. Where only a bound is given, the exact number is not on record here.

For `CN(C)Cc1c(C(=O)Nc2ccc(Cl)cc2C(=O)Nc2ccc(Cl)cc2)sc2ccccc12` [N-{4-chloro-2-[(4-chlorophenyl)carbamoyl]phenyl}-3-[(dimethylamino)methyl]-1-benzothiophene-2-carboxamide], the Ki (as a rule, the equilibrium dissociation constant of an inhibitor or competing ligand from its target) was greater than 5 µM.

With `CN(CCO)Cc1csc(C(=O)Nc2ccc(Cl)cc2C(=O)Nc2ccc(Cl)cc2)c1Cl` [3-chloro-N-{4-chloro-2-[(4-chlorophenyl)carbamoyl]phenyl}-4-{[(2-hydroxyethyl)(methyl)amino]methyl}thiophene-2-carboxamide], the Ki was greater than 5 µM.

Regarding `CC(=O)N1CCN(Cc2csc(C(=O)Nc3ccc(Cl)cc3C(=O)Nc3ccc(Cl)cc3)c2Cl)CC1` [3-chloro-N-{4-chloro-2-[(4-chlorophenyl)carbamoyl]phenyl}-4-[(4-acetylpiperazin-1-yl)methyl]thiophene-2-carboxamide], the Ki was greater than 5 µM.

As to `O=C(Nc1ccc(Cl)cc1)c1cc(Cl)ccc1NC(=O)c1sc(CN2CCOCC2)cc1Cl` [3-chloro-N-{4-chloro-2-[(4-chlorophenyl)carbamoyl]phenyl}-5-(morpholin-4-ylmethyl)thiophene-2-carboxamide], the Ki is greater than 5 µM.

For the compound `O=C(Nc1ccc(Cl)cc1)c1cc(Cl)ccc1NC(=O)c1scc(CNCCCn2ccnc2)c1Cl` [3-chloro-N-{4-chloro-2-[(4-chlorophenyl)carbamoyl]phenyl}-4-({[3-(1H-imidazol-1-yl)propyl]amino}methyl)thiophene-2-carboxamide], the Ki was greater than 5 µM.

In turn, `CN1CCN(Cc2c(C(=O)Nc3ccc(Cl)cc3C(=O)Nc3ccc(Cl)cc3)sc3ccccc23)CC1` [N-{4-chloro-2-[(4-chlorophenyl)carbamoyl]phenyl}-3-[(4-methylpiperazin-1-yl)methyl]-1-benzothiophene-2-carboxamide] had a Ki greater than 5 µM.

The compound `O=C(Nc1ccc(Cl)cc1)c1cc(Cl)ccc1NC(=O)c1scc(CN2CCOCC2)c1Cl` [3-chloro-N-{4-chloro-2-[(4-chlorophenyl)carbamoyl]phenyl}-4-(morpholin-4-ylmethyl)thiophene-2-carboxamide] showed a Ki greater than 5 µM.

Regarding `CN(C)Cc1ccc2c(Cl)c(C(=O)Nc3ccc(Cl)cc3C(=O)Nc3ccc(Cl)cc3)sc2c1` [3-chloro-N-{4-chloro-2-[(4-chlorophenyl)carbamoyl]phenyl}-6-[(dimethylamino)methyl]-1-benzothiophene-2-carboxamide], the Ki is greater than 5 µM.

The compound `CN1CCN(Cc2ccc3c(Cl)c(C(=O)Nc4ccc(Cl)cc4C(=O)Nc4ccc(Cl)cc4)sc3c2)CC1` [3-chloro-N-{4-chloro-2-[(4-chlorophenyl)carbamoyl]phenyl}-6-[(4-methylpiperazin-1-yl)methyl]-1-benzothiophene-2-carboxamide] came in with a Ki greater than 5 µM.

With `CN(C)CCSCc1csc(C(=O)Nc2ccc(Cl)cc2C(=O)Nc2ccc(Cl)cc2)c1Cl` [3-chloro-N-{4-chloro-2-[(4-chlorophenyl)carbamoyl]phenyl}-4-({[2-(dimethylamino)ethyl]sulfanyl}methyl)thiophene-2-carboxamide], the Ki was greater than 5 µM.

Compound `O=C(Nc1ccc(Cl)cc1)c1cc(Cl)ccc1NC(=O)c1scc(CN2CCSCC2)c1Cl` [3-chloro-N-{4-chloro-2-[(4-chlorophenyl)carbamoyl]phenyl}-4-(thiomorpholin-4-ylmethyl)thiophene-2-carboxamide] came in with a Ki greater than 5 µM.

Consider `O=C(Nc1ccc(Cl)cc1)c1cc(Cl)ccc1NC(=O)c1scc(COCC(O)CO)c1Cl` (configuration not stated) [3-chloro-N-{4-chloro-2-[(4-chlorophenyl)carbamoyl]phenyl}-4-[(2,3-dihydroxypropoxy)methyl]thiophene-2-carboxamide], for which the Ki was greater than 5 µM.

`O=C(Nc1ccc(Cl)cc1)c1cc(Cl)ccc1NC(=O)c1scc(Cn2ncnn2)c1Cl` [3-chloro-N-{4-chloro-2-[(4-chlorophenyl)carbamoyl]phenyl}-4-(2H-1,2,3,4-tetrazol-2-ylmethyl)thiophene-2-carboxamide]: the Ki is greater than 5 µM.

Compound `O=C(Nc1ccc(Cl)cc1)c1cc(Cl)ccc1NC(=O)c1scc(Cn2ccnc2)c1Cl` [3-chloro-N-{4-chloro-2-[(4-chlorophenyl)carbamoyl]phenyl}-4-(1H-imidazol-1-ylmethyl)thiophene-2-carboxamide] showed a Ki greater than 5 µM.

Turning to `O=C(Nc1ccc(Cl)cc1)c1cc(Cl)ccc1NC(=O)c1scc(Cn2cncn2)c1Cl` [3-chloro-N-{4-chloro-2-[(4-chlorophenyl)carbamoyl]phenyl}-4-(1H-1,2,4-triazol-1-ylmethyl)thiophene-2-carboxamide], the Ki was greater than 5 µM.

Compound `COCCOCc1csc(C(=O)Nc2ccc(Cl)cc2C(=O)Nc2ccc(Cl)cc2)c1Cl` [3-chloro-N-{4-chloro-2-[(4-chlorophenyl)carbamoyl]phenyl}-4-[(2-methoxyethoxy)methyl]thiophene-2-carboxamide] gave an inhibition constant Ki greater than 5 µM.

Take `CN(CCN1CCCC1)Cc1csc(C(=O)Nc2ccc(Cl)cc2C(=O)Nc2ccc(Cl)cc2)c1Cl` [3-chloro-N-{4-chloro-2-[(4-chlorophenyl)carbamoyl]phenyl}-4-({methyl[2-(pyrrolidin-1-yl)ethyl]amino}methyl)thiophene-2-carboxamide]: the inhibition constant Ki was greater than 5 µM.

The compound `O=C(O)CN1CCN(Cc2ccc3c(Cl)c(C(=O)Nc4ccc(Cl)cc4C(=O)Nc4ccc(Cl)cc4)sc3c2)CC1` [2-(4-{[3-chloro-2-({4-chloro-2-[(4-chlorophenyl)carbamoyl]phenyl}carbamoyl)-1-benzothiophen-6-yl]methyl}piperazin-1-yl)acetic acid] yielded a Ki greater than 5 µM.

In turn, `CN(Cc1csc(C(=O)Nc2ccc(Cl)cc2C(=O)Nc2ccc(Cl)cc2)c1Cl)CC(O)CO` (configuration not stated) [3-chloro-N-{4-chloro-2-[(4-chlorophenyl)carbamoyl]phenyl}-4-{[(2,3-dihydroxypropyl)(methyl)amino]methyl}thiophene-2-carboxamide] returned a Ki greater than 5 µM.

`C[S+]([O-])Cc1csc(C(=O)Nc2ccc(Cl)cc2C(=O)Nc2ccc(Cl)cc2)c1Cl` (configuration not stated) [3-chloro-N-{4-chloro-2-[(4-chlorophenyl)carbamoyl]phenyl}-4-(methanesulfinylmethyl)thiophene-2-carboxamide] yielded a Ki greater than 5 µM.

In the case of `CCOC(=O)CN(C)Cc1csc(C(=O)Nc2ccc(Cl)cc2C(=O)Nc2ccc(Cl)cc2)c1Cl` [ethyl 2-({[4-chloro-5-({4-chloro-2-[(4-chlorophenyl)carbamoyl]phenyl}carbamoyl)thiophen-3-yl]methyl}(methyl)amino)acetate], the inhibition constant (Ki) was greater than 5 µM.

`CN(C)CCCN(C)Cc1csc(C(=O)Nc2ccc(Cl)cc2C(=O)Nc2ccc(Cl)cc2)c1Cl` [3-chloro-N-{4-chloro-2-[(4-chlorophenyl)carbamoyl]phenyl}-4-({[3-(dimethylamino)propyl](methyl)amino}methyl)thiophene-2-carboxamide] displayed a Ki greater than 5 µM.

Consider `CN1CCN(Cc2cc(Cl)c(C(=O)Nc3ccc(Cl)cc3C(=O)Nc3ccc(Cl)cc3)s2)CC1` [3-chloro-N-{4-chloro-2-[(4-chlorophenyl)carbamoyl]phenyl}-5-[(4-methylpiperazin-1-yl)methyl]thiophene-2-carboxamide], for which the Ki is greater than 5 µM.

The compound `O=C(Nc1ccc(Cl)cc1)c1cc(Cl)ccc1NC(=O)c1scc(Cn2ccnn2)c1Cl` [3-chloro-N-{4-chloro-2-[(4-chlorophenyl)carbamoyl]phenyl}-4-(1H-1,2,3-triazol-1-ylmethyl)thiophene-2-carboxamide] showed a Ki greater than 5 µM.

Take `O=C(Nc1ccc(Cl)cc1)c1cc(Cl)ccc1NC(=O)c1scc(Cn2cccn2)c1Cl` [3-chloro-N-{4-chloro-2-[(4-chlorophenyl)carbamoyl]phenyl}-4-(1H-pyrazol-1-ylmethyl)thiophene-2-carboxamide]: the Ki was greater than 5 µM.

Take `O=C(Nc1ccc(Cl)cc1)c1cc(Cl)ccc1NC(=O)c1sc2ccccc2c1Cl` [3-chloro-N-{4-chloro-2-[(4-chlorophenyl)carbamoyl]phenyl}-1-benzothiophene-2-carboxamide]: the Ki was greater than 5 µM.

For the compound `COCCOCCOCc1csc(C(=O)Nc2ccc(Cl)cc2C(=O)Nc2ccc(Cl)cc2)c1Cl` [3-chloro-N-{4-chloro-2-[(4-chlorophenyl)carbamoyl]phenyl}-4-{[2-(2-methoxyethoxy)ethoxy]methyl}thiophene-2-carboxamide], the inhibition constant (Ki) is greater than 5 µM.

Turning to `CN(CCOCCO)Cc1csc(C(=O)Nc2ccc(Cl)cc2C(=O)Nc2ccc(Cl)cc2)c1Cl` [3-chloro-N-{4-chloro-2-[(4-chlorophenyl)carbamoyl]phenyl}-4-({[2-(2-hydroxyethoxy)ethyl](methyl)amino}methyl)thiophene-2-carboxamide], the inhibitory constant (Ki) was greater than 5 µM.

Consider `CCN(CC)CCN(C)Cc1csc(C(=O)Nc2ccc(Cl)cc2C(=O)Nc2ccc(Cl)cc2)c1Cl` [3-chloro-N-{4-chloro-2-[(4-chlorophenyl)carbamoyl]phenyl}-4-({[2-(diethylamino)ethyl](methyl)amino}methyl)thiophene-2-carboxamide], for which the inhibitory constant (Ki) is greater than 5 µM.

With `Cc1csc(C(=O)Nc2ccc(Cl)cc2C(=O)Nc2ccc(Cl)cc2)c1Cl` [3-chloro-N-{4-chloro-2-[(4-chlorophenyl)carbamoyl]phenyl}-4-methylthiophene-2-carboxamide], the Ki was greater than 5 µM.

As to `CSCc1csc(C(=O)Nc2ccc(Cl)cc2C(=O)Nc2ccc(Cl)cc2)c1Cl` [3-chloro-N-{4-chloro-2-[(4-chlorophenyl)carbamoyl]phenyl}-4-[(methylsulfanyl)methyl]thiophene-2-carboxamide], the Ki was greater than 5 µM.

Regarding `O=C(Nc1ccc(Cl)cc1)c1cc(Cl)ccc1NC(=O)c1scc(Cn2nccn2)c1Cl` [3-chloro-N-{4-chloro-2-[(4-chlorophenyl)carbamoyl]phenyl}-4-(2H-1,2,3-triazol-2-ylmethyl)thiophene-2-carboxamide], the Ki is greater than 5 µM.
